In US20090176817A1, “Method of Treatment of Diarrhea-Predominant Irritable Bowel Syndrome in a Subject” (priority 2005, published 2009):

Test system: diarrhea-predominant IBS subjects
Experiment: Study S241.3.006: weekly diary questions on adequate relief
Assay type: in vivo, human
Conditions: for Number of months a subject was a responder: One month (Abdominal pain/discomfort) / Number of months a subject was a responder: One month (Abnormal bowel habits) / Number of months a subject was a responder: One month (IBS symptoms) / Number of months a subject was a responder: Three months (Abdominal pain/discomfort) / Number of months a subject was a responder: Three months (Abnormal bowel habits) / Number of months a subject was a responder: Three months (IBS symptoms) / Number of months a subject was a responder: Two months (Abdominal pain/discomfort) / Number of months a subject was a responder: Two months (Abnormal bowel habits) / Number of months a subject was a responder: Two months (IBS symptoms) / Number of months a subject was a responder: Zero months (Abdominal pain/discomfort) / Number of months a subject was a responder: Zero months (Abnormal bowel habits) / Number of months a subject was a responder: Zero months (IBS symptoms) / Overall responder rate, adequate relief of IBS symptoms / Overall responder rate, adequate relief of abdominal pain/discomfort / Overall responder rate, adequate relief of abnormal bowel habits: three-month treatment period; for Number of months a subject was a responder: One month (Abdominal pain/discomfort) / Number of months a subject was a responder: One month (Abnormal bowel habits) / Number of months a subject was a responder: One month (IBS symptoms) / Number of months a subject was a responder: Three months (Abdominal pain/discomfort) / Number of months a subject was a responder: Three months (Abnormal bowel habits) / Number of months a subject was a responder: Three months (IBS symptoms) / Number of months a subject was a responder: Two months (Abdominal pain/discomfort) / Number of months a subject was a responder: Two months (Abnormal bowel habits) / Number of months a subject was a responder: Two months (IBS symptoms) / Number of months a subject was a responder: Zero months (Abdominal pain/discomfort) / Number of months a subject was a responder: Zero months (Abnormal bowel habits) / Number of months a subject was a responder: Zero months (IBS symptoms): monthly LOCF
Procedure: The study was conducted in 129 study centers in the United States. At total of 2080 subjects consented to participate, and 711 subjects were randomized. A total of 692 subjects were analyzed for efficacy and 701 subjects were analyzed for safety. Diagnosis and main criteria for inclusion were IBS subjects satisfying the Rome I criteria (1992); the diarrhea predominant sub-population of the Rome II criteria; and a minimum abdominal pain/discomfort, stool frequency and consistency determined during the run-in period. Subjects were treated with cilansetron 2 mg tablets given orally TID or matching placebo tablets given orally TID for 12 weeks double-blind treatment.
The primary efficacy parameter was the number of months that a subject was a responder for IBS symptoms (abdominal pain, abdominal discomfort, abnormal bowel habits) over the 12-week treatment period. A responder for a month (monthly responder) was defined as a subject who answered the weekly question with “yes” at least twice for that month.
Studies S24 1.3.OO6, S24 1.3.0 1 1, and S24 1.3.009 used the following efficacy measurements: • The subjects answered the following three questions with “yes” or “no” using a phone diary at the end of each week: • a) During the last week, did you experience adequate relief of your IBS symptoms, such as abdominal pain, abdominal discomfort, abnormal bowel habits? • b) During the last week, did you experience adequate relief of your abdominal pain and/or discomfort? • c) During the last week, did you experience adequate relief of your abnormal bowel habits? • The subjects rated the following symptoms using the phone diary at the end of each day: • abdominal pain/discomfort (five-point scale); • stool consistency (seven-point Bristol Stool Scale); • stool frequency (number of bowel movements each day); • urgency (five-point scale); • straining (yes or no); • feeling of incomplete defecation (yes or no); • bloating or feeling of abdominal distension (five-point scale). • In Studies S241 A006 and S241.3.009, subjects completed the IBS-QOL Survey at Baseline (Day 1) and at the end of treatment. In Study S24 1.3.0 1 1, subjects completed the IBS-QOL Survey at Baseline (Day 1), at the end of the three-month treatment period, and at the end of rerandomized treatment.
In all three pivotal efficacy studies, the primary and main secondary efficacy parameters were based on the weekly diary questions on adequate relief and included the following: • 1. Number of months (one month equals four weeks) that a subject was a responder for the weekly diary questions on adequate relief. A responder for a month (monthly responder) was defined as a subject who answered the weekly question with “yes” at least twice for that month. For Studies S241.3.006 and S241.3.011, the primary efficacy parameter was the number of months that a subject was a responder for IBS symptoms during the 12-week treatment period. The two main secondary efficacy parameters were the number of months that a subject was a responder for abdominal pain/discomfort and abnormal bowel habits during the 12-week treatment period. For Study S241.3.009, the number of months that a subject was a responder for the weekly diary questions on adequate relief during Months 1 to 3 (the first 12 weeks) and Months 1 to 6 (24-week) was an additional key secondary efficacy parameter. • 2. Overall responder rate for the weekly diary questions on adequate relief. A responder was defined as a subject who answered the weekly question with “yes” for at least half of the answers available with a minimum of four weeks treatment duration. If a subject had less than four weeks treatment duration, the subject was considered a non-responder. The overall responder rate was the percentage of responders within a treatment group. For Study S241.3.009, the primary efficacy parameter was the overall responder rate for IBS symptoms during the 26-week treatment period. […]

[1] = Duration of IBS: ≦24 months, ITT, 2 mg TID
[2] = Female subjects, observed case, ITT, 2 mg TID
[3] = Male subjects, observed case, ITT, 2 mg TID

Cc1nccn1C[C@H]1CCc2c(c3cccc4c3n2CCC4)C1=O [Cilansetron, (R)-(−)-4,5,6,8,9,10-hexahydro-10-[(2-methyl-1H-imidazol-1-yl)methyl]-11H-pyrido-[3,2,1-jk]-carbazol-11-one]
Number of subjects who were responders during the three-month treatment period: Adequate relief of abnormal bowel habits (Duration of IBS: ≦24 months, 2 mg TID, observed case, ITT): 27 (53) n (%) | Number of months a subject was a responder: One month (Abdominal pain/discomfort) [1]: 7 (14) n (%) | Number of months a subject was a responder: One month (Abnormal bowel habits) [1]: 4 (8) n (%) | Number of months a subject was a responder: One month (IBS symptoms) [1]: 5 (10) n (%) | Number of months a subject was a responder: Three months (Abdominal pain/discomfort) [1]: 25 (49) n (%) | Number of months a subject was a responder: Three months (Abnormal bowel habits) [1]: 22 (43) n (%) | Number of months a subject was a responder: Three months (IBS symptoms) [1]: 19 (37) n (%) | Number of months a subject was a responder: Two months (Abdominal pain/discomfort) [1]: 4 (8) n (%) | Number of months a subject was a responder: Two months (Abnormal bowel habits) [1]: 7 (14) n (%) | Number of months a subject was a responder: Two months (IBS symptoms) [1]: 8 (16) n (%) | Number of months a subject was a responder: Zero months (Abdominal pain/discomfort) [1]: 15 (29) n (%) | Number of months a subject was a responder: Zero months (Abnormal bowel habits) [1]: 18 (35) n (%) | Number of months a subject was a responder: Zero months (IBS symptoms) [1]: 19 (37) n (%) | Number of months a subject was a responder: One month (Abdominal pain/discomfort) (Female subjects, ITT, 2 mg TID): 32 (13) n (%) | Number of months a subject was a responder: One month (Abnormal bowel habits) (Female subjects, ITT, 2 mg TID): 27 (11) n (%) | Number of months a subject was a responder: One month (IBS symptoms) (Female subjects, ITT, 2 mg TID): 36 (15) n (%) | Number of months a subject was a responder: Three months (Abdominal pain/discomfort) (Female subjects, ITT, 2 mg TID): 103 (42) n (%) | Number of months a subject was a responder: Three months (Abnormal bowel habits) (Female subjects, ITT, 2 mg TID): 104 (43) n (%) | Number of months a subject was a responder: Three months (IBS symptoms) (Female subjects, ITT, 2 mg TID): 94 (39) n (%) | Number of months a subject was a responder: Two months (Abdominal pain/discomfort) (Female subjects, ITT, 2 mg TID): 38 (16) n (%) | Number of months a subject was a responder: Two months (Abnormal bowel habits) (Female subjects, ITT, 2 mg TID): 37 (15) n (%) | Number of months a subject was a responder: Two months (IBS symptoms) (Female subjects, ITT, 2 mg TID): 38 (16) n (%) | Number of months a subject was a responder: Zero months (Abdominal pain/discomfort) (Female subjects, ITT, 2 mg TID): 70 (29) n (%) | Number of months a subject was a responder: Zero months (Abnormal bowel habits) (Female subjects, ITT, 2 mg TID): 75 (31) n (%) | Number of months a subject was a responder: Zero months (IBS symptoms) (Female subjects, ITT, 2 mg TID): 75 (31) n (%) | Overall responder rate, adequate relief of IBS symptoms [2]: 127 (52) n (%) | Overall responder rate, adequate relief of abdominal pain/discomfort [2]: 134 (55) n (%) | Overall responder rate, adequate relief of abnormal bowel habits [2]: 135 (56) n (%) | Number of months a subject was a responder: One month (Abdominal pain/discomfort) (Male subjects, ITT, 2 mg TID): 10 (10) n (%) | Number of months a subject was a responder: One month (Abnormal bowel habits) (Male subjects, ITT, 2 mg TID): 13 (13) n (%) | Number of months a subject was a responder: One month (IBS symptoms) (Male subjects, ITT, 2 mg TID): 9 (9) n (%) | Number of months a subject was a responder: Three months (Abdominal pain/discomfort) (Male subjects, ITT, 2 mg TID): 36 (36) n (%) | Number of months a subject was a responder: Three months (Abnormal bowel habits) (Male subjects, ITT, 2 mg TID): 25 (25) n (%) | Number of months a subject was a responder: Three months (IBS symptoms) (Male subjects, ITT, 2 mg TID): 25 (25) n (%) | Number of months a subject was a responder: Two months (Abdominal pain/discomfort) (Male subjects, ITT, 2 mg TID): 9 (9) n (%) | Number of months a subject was a responder: Two months (Abnormal bowel habits) (Male subjects, ITT, 2 mg TID): 15 (15) n (%) | Number of months a subject was a responder: Two months (IBS symptoms) (Male subjects, ITT, 2 mg TID): 15 (15) n (%) | Number of months a subject was a responder: Zero months (Abdominal pain/discomfort) (Male subjects, ITT, 2 mg TID): 46 (46) n (%) | Number of months a subject was a responder: Zero months (Abnormal bowel habits) (Male subjects, ITT, 2 mg TID): 48 (48) n (%) | Number of months a subject was a responder: Zero months (IBS symptoms) (Male subjects, ITT, 2 mg TID): 52 (51) n (%) | Overall responder rate, adequate relief of IBS symptoms [3]: 41 (41) n (%) | Overall responder rate, adequate relief of abdominal pain/discomfort [3]: 45 (45) n (%) | Overall responder rate, adequate relief of abnormal bowel habits [3]: 39 (39) n (%) | Overall responder rate, IBS symptoms (females): 52% | Overall responder rate, abdominal pain/discomfort (females): 55% | Overall responder rate, abnormal bowel habits (females): 56% | Overall responder rate, IBS symptoms (males): 41% | Overall responder rate, abdominal pain/discomfort (males): 45% | Overall responder rate, abnormal bowel habits (males): 39% | Overall responder rate, abdominal pain/discomfort (non-Caucasians): 48%
